According to patent US20250066826A1, “ARTIFICIAL SYNTHESIS METHOD FOR MALONYL-COENZYME A (COA) AND USE THEREOF” (SHANGHAI JIAO TONG UNIVERSITY, priority 2023, published 2025):
Like-named read-outs stand apart in the source and are kept apart here.

Legend:
[1] = test system: E. coli MG1655 (DE3), pCDF-bauA-mcrC (strain L); format: cell-based; details: for biomass (OD550): NCM pathway overexpressed strain, MOPS medium with 200 mM succinic acid, 10 mM triacetic acid lactone, 300 mM NaCl or 480 mM sucrose; for increase of biomass of NCM strain compared to the ACC overexpressed strain / increase of biomass of NCM strain compared to the reference strain: same stressor concentrations as OD550 values
Procedure: (§1) Seed culture: Monoclones of the MG1655 (DE3), pCDF-bauA-mcrC (strain L), monoclones of the MG1655 (DE3), pCDF-duet (strain M) and monoclones of the MG1655 (DE3), pCDF-ACC (strain N) were selected respectively to be inoculated into a 15 mL test tube containing 5 mL of an MOPS medium, the medium containing spectinomycin (a final concentration of 50 μg/mL). Culture was carried out at 220 r and 37° C. until the OD550 is around 1.5 to 1.8 to be used as a seed solution.
(§2) Medium used for tolerance testing: IPTG (a final concentration of 0.1 mM) and spectinomycin (a final concentration of 50 μg/mL) were added into an MOPS medium (containing […] glucose); then, inhibitors were added, and the selected inhibitors and final concentrations thereof were formic acid (100 mM), acetic acid (50 mM), caproic acid (10 mM), lactic acid (500 mM), succinic acid (200 mM), glucose (100 μg/L), sucrose (480 mM), octanoic acid (10 mM), citric acid (200 mM), vanillic acid (3 μg/L), and triacetic acid lactone (TAL, 1.25 μg/L).
(§3) The seed solution was inoculated at a ratio of initial OD550=0.1 into a medium for tolerance test. After inoculation was completed, shaking for even mixing was carried out. 200 μL of the same was pipetted to a 96-well plate. By using a continuous kinetic assay method, OD550 was determined every 10 minutes with a microplate reader (Biotek), to determine the growth curve of the strain. The specific growth rate […] can be obtained by calculation of the exponential growth phase OD550T, cultivation time T, and initial OD550O.

[2] = test system: E. coli MG1655 (DE3), pCDF-ACC (strain N); format: cell-based; details: ACC overexpressed strain; MOPS medium with 200 mM succinic acid, 10 mM triacetic acid lactone, 300 mM NaCl or 480 mM sucrose
Procedure: as §1, §2, §3

[3] = test system: E. coli MG1655 (DE3), pCDF-duet (strain M); assay: Tolerance test, growth (OD550) of reference strain; format: cell-based; details: MOPS medium with 200 mM succinic acid, 10 mM triacetic acid lactone, 300 mM NaCl or 480 mM sucrose
Procedure: as §1, §2, §3

artificial NCM pathway = assay: Effect of inhibitors of natural synthesis pathways on the NCM in-vitro reaction system; format: biochemical
Procedure: It can be seen that the BauA has the best effect (FIG. 4A).
Natural PDH-ACC pathways are strictly regulated by many factors, such as high levels of intracellular ATP severely reducing the activity of PDH. When ADP/ATP=1, the activity of PDH is only 10% of that when ADP/ATP=20 (Hansford R G et al., 1976). Acetyl-CoA is also an inhibitor of PDH. When acetyl-CoA reaches 2 mM, the activity of PDH decreases by 70%. Long-chain fatty acyl-CoA, such as palmitoyl-CoA, is an inhibitor of ACC. […] palmitoyl-CoA can cause an 80% decrease in ACC activity. In the above NCM in-vitro reaction system, ATP and ADP (ATP+ADP=3.75 mM, ADP/ATP was +00, 10, 1, and 0.1, respectively) (FIG. 6A), acetyl-CoA (0, 0.5, 1, and 2 mM) (FIG. 6B), and palmitoyl-CoA ([…]) (FIG. 6C) were added, respectively.

PDH = details: cited from earlier work

SMILES	biomass (OD550) [1]	increase of biomass of NCM strain compared to the ACC overexpressed strain [1] [%]	increase of biomass of NCM strain compared to the reference strain [1] [%]	biomass (OD550) [2]	biomass (OD550) [3]	also measured
Cc1cc(O)cc(=O)o1 [triacetic acid lactone]	0.81	180	30	0.29	0.62	
[Cl-].[Na+] [NaCl]	0.76	214	29	0.24	0.59	
O=C(O)CCC(=O)O [succinic acid]	0.60		100	0.20	0.30	
CCCCCCCCCCCCCCCC(=O)SCCNC(=O)CCNC(=O)[C@H](O)C(C)(C)COP(=O)(O)OP(=O)(O)OC[C@H]1O[C@@H](n2cnc3c(N)ncnc32)[C@H](O)[C@@H]1OP(=O)(O)O [palmitoyl-CoA]						inhibitory effect on the artificial NCM pathway (artificial NCM pathway; palmitoyl-CoA 0, 0.24, 0.48, 0.96, 2.4 and 24 M): no inhibitory effect
OC[C@H]1O[C@@](CO)(O[C@H]2O[C@H](CO)[C@@H](O)[C@H](O)[C@H]2O)[C@@H](O)[C@@H]1O [sucrose]	0.96	320	26	0.23	0.77	
CC(=O)SCCNC(=O)CCNC(=O)[C@H](O)C(C)(C)COP(=O)(O)OP(=O)(O)OC[C@H]1O[C@@H](n2cnc3c(N)ncnc32)[C@H](O)[C@@H]1OP(=O)(O)O [acetyl-CoA]						decrease in PDH activity (PDH; 2 mM acetyl-CoA): 70%; inhibitory effect on the artificial NCM pathway (artificial NCM pathway; acetyl-CoA 0, 0.5, 1 and 2 mM): no inhibitory effect
Nc1ncnc2c1ncn2[C@@H]1O[C@H](COP(=O)(O)OP(=O)(O)OP(=O)(O)O)[C@@H](O)[C@H]1O [ATP]						decrease in PDH activity (PDH; ADP/ATP equal to 1): 90%; activity of PDH relative to that when ADP/ATP=20 (PDH; ADP/ATP=1): 10%; inhibitory effect on the artificial NCM pathway (artificial NCM pathway; ATP+ADP=3.75 mM, ADP/ATP +00, 10, 1 and 0.1): no inhibitory effect
